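Grown in 96-well plates, cells were treated for 48 hours with each compound at five concentrations. Insufficient inhibition: endpoint recorded as highest concentration tested. Definition used: TGI = concentration required for complete inhibition of growth.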
How the values were obtained:
Assay in all cases: NCI tumour cell line growth inhibition, 48 h
HCT-116 colon = tested on: HCT-116 colon
MDA-N = tested on: MDA-N
SF-268 CNS = tested on: SF-268 CNS
T-47D breast = tested on: T-47D breast
ACHN renal = tested on: ACHN renal
NCI-H226 lung = tested on: NCI-H226 lung
SF-295 CNS = tested on: SF-295 CNS
OVCAR-4 ovarian = tested on: OVCAR-4 ovarian
A498 renal = tested on: A498 renal
SNB-19 CNS = tested on: SNB-19 CNS
SR leukemia = tested on: SR leukemia
RXF 393 renal = tested on: RXF 393 renal
RPMI-8226 leukemia = tested on: RPMI-8226 leukemia
PC-3 prostate = tested on: PC-3 prostate
HCC-2998 colon = tested on: HCC-2998 colon
SW-620 colon = tested on: SW-620 colon
UACC-62 melanoma = tested on: UACC-62 melanoma
DU-145 prostate = tested on: DU-145 prostate
SF-539 CNS = tested on: SF-539 CNS
OVCAR-5 ovarian = tested on: OVCAR-5 ovarian
SK-MEL-28 melanoma = tested on: SK-MEL-28 melanoma
SK-MEL-2 melanoma = tested on: SK-MEL-2 melanoma
HL-60(TB) leukemia = tested on: HL-60(TB) leukemia
NCI-H522 lung = tested on: NCI-H522 lung
HS 578T breast = tested on: HS 578T breast
HT29 colon = tested on: HT29 colon
IGROV1 ovarian = tested on: IGROV1 ovarian
CCRF-CEM leukemia = tested on: CCRF-CEM leukemia
NCI-H23 lung = tested on: NCI-H23 lung
K-562 leukemia = tested on: K-562 leukemia
UACC-257 melanoma = tested on: UACC-257 melanoma
COLO 205 colon = tested on: COLO 205 colon
OVCAR-8 ovarian = tested on: OVCAR-8 ovarian
NCI/ADR-RES ovarian = tested on: NCI/ADR-RES ovarian
MCF7 breast = tested on: MCF7 breast
MDA-MB-435 = tested on: MDA-MB-435
CAKI-1 renal = tested on: CAKI-1 renal
KM12 colon = tested on: KM12 colon
HOP-62 NSCLC = tested on: HOP-62 NSCLC
LOX IMVI melanoma = tested on: LOX IMVI melanoma
UO-31 renal = tested on: UO-31 renal
SN12C renal = tested on: SN12C renal
NCI-H460 lung = tested on: NCI-H460 lung
786-0 renal = tested on: 786-0 renal
HCT-15 colon = tested on: HCT-15 colon
SNB-75 CNS = tested on: SNB-75 CNS
SK-OV-3 ovarian = tested on: SK-OV-3 ovarian
OVCAR-3 ovarian = tested on: OVCAR-3 ovarian
A549 NSCLC = tested on: A549 NSCLC
M14 melanoma = tested on: M14 melanoma
EKVX NSCLC = tested on: EKVX NSCLC
U251 CNS = tested on: U251 CNS
MDA-MB-231 breast = tested on: MDA-MB-231 breast
SK-MEL-5 melanoma = tested on: SK-MEL-5 melanoma
MALME-3M melanoma = tested on: MALME-3M melanoma
MOLT-4 leukemia = tested on: MOLT-4 leukemia
TK-10 renal = tested on: TK-10 renal
BT-549 breast = tested on: BT-549 breast
HOP-92 NSCLC = tested on: HOP-92 NSCLC

CN1CCC(OC(=O)Oc2ccccc2)(c2ccccc2)CC1
TGI (HCT-116 colon): 30.5 µM | TGI (MDA-N): 34.9 µM | TGI (SF-268 CNS): > 100 µM | TGI (T-47D breast): 52.1 µM | TGI (ACHN renal): > 100 µM | TGI (NCI-H226 lung): 62.7 µM | TGI (SF-295 CNS): 55.4 µM | TGI (OVCAR-4 ovarian): 48.4 µM | TGI (A498 renal): 56.4 µM | TGI (SNB-19 CNS): 69.2 µM | TGI (SR leukemia): 42.6 µM | TGI (RXF 393 renal): > 100 µM | TGI (RPMI-8226 leukemia): 35.7 µM | TGI (PC-3 prostate): 45.8 µM | TGI (HCC-2998 colon): 38.3 µM | TGI (SW-620 colon): 59.6 µM | TGI (UACC-62 melanoma): 37.6 µM | TGI (DU-145 prostate): > 100 µM | TGI (SF-539 CNS): 26.5 µM | TGI (OVCAR-5 ovarian): 84.2 µM | TGI (SK-MEL-28 melanoma): 41.7 µM | TGI (SK-MEL-2 melanoma): 33.2 µM | TGI (HL-60(TB) leukemia): 36.6 µM | TGI (NCI-H522 lung): 49.8 µM | TGI (HS 578T breast): 54.3 µM | TGI (HT29 colon): 26 µM | TGI (IGROV1 ovarian): 64.5 µM | TGI (CCRF-CEM leukemia): 55.1 µM | TGI (NCI-H23 lung): 35.7 µM | TGI (K-562 leukemia): 55.3 µM | TGI (UACC-257 melanoma): 34 µM | TGI (COLO 205 colon): 25.8 µM | TGI (OVCAR-8 ovarian): 33 µM | TGI (NCI/ADR-RES ovarian): 39.2 µM | TGI (MCF7 breast): 35.1 µM | TGI (MDA-MB-435): 33.7 µM | TGI (CAKI-1 renal): > 100 µM | TGI (KM12 colon): 37.5 µM | TGI (HOP-62 NSCLC): 40.6 µM | TGI (LOX IMVI melanoma): 34 µM | TGI (UO-31 renal): 54.2 µM | TGI (SN12C renal): 43.8 µM | TGI (NCI-H460 lung): 39.3 µM | TGI (786-0 renal): > 100 µM | TGI (HCT-15 colon): 36.8 µM | TGI (SNB-75 CNS): 63.3 µM | TGI (SK-OV-3 ovarian): 52.9 µM | TGI (OVCAR-3 ovarian): > 100 µM | TGI (A549 NSCLC): > 100 µM | TGI (M14 melanoma): 28.2 µM | TGI (EKVX NSCLC): 79.5 µM | TGI (U251 CNS): 44.9 µM | TGI (MDA-MB-231 breast): 29.1 µM | TGI (SK-MEL-5 melanoma): 34.2 µM | TGI (MALME-3M melanoma): 32.5 µM | TGI (MOLT-4 leukemia): 36.4 µM | TGI (TK-10 renal): 37.7 µM

NS(=O)(=O)c1nnc(NC(=O)c2ccccc2)s1
TGI (HCT-116 colon): > 100 µM | TGI (MDA-N): > 100 µM | TGI (SF-268 CNS): > 100 µM | TGI (BT-549 breast): > 100 µM | TGI (T-47D breast): > 100 µM | TGI (ACHN renal): > 100 µM | TGI (NCI-H226 lung): > 100 µM | TGI (SF-295 CNS): > 100 µM | TGI (OVCAR-4 ovarian): > 100 µM | TGI (A498 renal): > 100 µM | TGI (SNB-19 CNS): > 100 µM | TGI (SR leukemia): > 100 µM | TGI (RXF 393 renal): > 100 µM | TGI (RPMI-8226 leukemia): > 100 µM | TGI (HCC-2998 colon): > 100 µM | TGI (SW-620 colon): > 100 µM | TGI (UACC-62 melanoma): > 100 µM | TGI (DU-145 prostate): > 100 µM | TGI (SF-539 CNS): > 100 µM | TGI (OVCAR-5 ovarian): > 100 µM | TGI (SK-MEL-28 melanoma): > 100 µM | TGI (SK-MEL-2 melanoma): > 100 µM | TGI (HOP-92 NSCLC): > 100 µM | TGI (NCI-H522 lung): > 100 µM | TGI (HS 578T breast): > 100 µM | TGI (NCI-H23 lung): > 100 µM | TGI (K-562 leukemia): > 100 µM | TGI (UACC-257 melanoma): > 100 µM | TGI (COLO 205 colon): > 100 µM | TGI (OVCAR-8 ovarian): > 100 µM | TGI (NCI/ADR-RES ovarian): > 100 µM | TGI (MCF7 breast): > 100 µM | TGI (MDA-MB-435): > 100 µM | TGI (CAKI-1 renal): > 100 µM | TGI (KM12 colon): > 100 µM | TGI (HOP-62 NSCLC): > 100 µM | TGI (LOX IMVI melanoma): > 100 µM | TGI (UO-31 renal): > 100 µM | TGI (SN12C renal): > 100 µM | TGI (NCI-H460 lung): > 100 µM | TGI (786-0 renal): > 100 µM | TGI (HCT-15 colon): > 100 µM | TGI (SK-OV-3 ovarian): > 100 µM | TGI (OVCAR-3 ovarian): > 100 µM | TGI (A549 NSCLC): > 100 µM | TGI (M14 melanoma): > 100 µM | TGI (EKVX NSCLC): > 100 µM | TGI (U251 CNS): > 100 µM | TGI (MDA-MB-231 breast): > 100 µM | TGI (SK-MEL-5 melanoma): > 100 µM | TGI (MALME-3M melanoma): > 100 µM | TGI (MOLT-4 leukemia): > 100 µM | TGI (TK-10 renal): > 100 µM
